Laboratory results: PubChem BioAssay (NCI)
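Compound exposure: 48 hours, 5 concentrations, 96-well plates. TGI: total growth inhibition.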

Legend:
Test in all cases: NCI-60 cell line screen, 48 h
RXF 393 renal = tested on: RXF 393 renal
PC-3 prostate = tested on: PC-3 prostate
MDA-MB-231 breast = tested on: MDA-MB-231 breast
K-562 leukemia = tested on: K-562 leukemia
M14 melanoma = tested on: M14 melanoma
LOX IMVI melanoma = tested on: LOX IMVI melanoma
DU-145 prostate = tested on: DU-145 prostate
HL-60(TB) leukemia = tested on: HL-60(TB) leukemia
HOP-62 NSCLC = tested on: HOP-62 NSCLC
COLO 205 colon = tested on: COLO 205 colon
RPMI-8226 leukemia = tested on: RPMI-8226 leukemia
BT-549 breast = tested on: BT-549 breast
SN12C renal = tested on: SN12C renal
MOLT-4 leukemia = tested on: MOLT-4 leukemia
ACHN renal = tested on: ACHN renal
OVCAR-5 ovarian = tested on: OVCAR-5 ovarian
UO-31 renal = tested on: UO-31 renal
NCI-H226 lung = tested on: NCI-H226 lung
HT29 colon = tested on: HT29 colon
SR leukemia = tested on: SR leukemia
NCI-H522 lung = tested on: NCI-H522 lung
NCI-H23 lung = tested on: NCI-H23 lung
SF-295 CNS = tested on: SF-295 CNS
SK-MEL-5 melanoma = tested on: SK-MEL-5 melanoma
UACC-62 melanoma = tested on: UACC-62 melanoma
OVCAR-3 ovarian = tested on: OVCAR-3 ovarian
TK-10 renal = tested on: TK-10 renal
SK-MEL-2 melanoma = tested on: SK-MEL-2 melanoma
SK-MEL-28 melanoma = tested on: SK-MEL-28 melanoma
HCT-15 colon = tested on: HCT-15 colon
IGROV1 ovarian = tested on: IGROV1 ovarian
786-0 renal = tested on: 786-0 renal
UACC-257 melanoma = tested on: UACC-257 melanoma
HCC-2998 colon = tested on: HCC-2998 colon
U251 CNS = tested on: U251 CNS
SW-620 colon = tested on: SW-620 colon
T-47D breast = tested on: T-47D breast
NCI/ADR-RES ovarian = tested on: NCI/ADR-RES ovarian
A549 NSCLC = tested on: A549 NSCLC
SK-OV-3 ovarian = tested on: SK-OV-3 ovarian
EKVX NSCLC = tested on: EKVX NSCLC
MCF7 breast = tested on: MCF7 breast
OVCAR-8 ovarian = tested on: OVCAR-8 ovarian
MDA-MB-435 = tested on: MDA-MB-435
OVCAR-4 ovarian = tested on: OVCAR-4 ovarian
SF-539 CNS = tested on: SF-539 CNS
A498 renal = tested on: A498 renal
NCI-H460 lung = tested on: NCI-H460 lung
CAKI-1 renal = tested on: CAKI-1 renal
CCRF-CEM leukemia = tested on: CCRF-CEM leukemia
SF-268 CNS = tested on: SF-268 CNS
KM12 colon = tested on: KM12 colon
SNB-75 CNS = tested on: SNB-75 CNS
HCT-116 colon = tested on: HCT-116 colon
HS 578T breast = tested on: HS 578T breast
SNB-19 CNS = tested on: SNB-19 CNS
HOP-92 NSCLC = tested on: HOP-92 NSCLC

O=c1c2ncn(C3CCCO3)c2n(-c2ccccc2)c(=S)n1-c1ccccc1 (stereo not given)
TGI (RXF 393 renal): > 100 µM
TGI (PC-3 prostate): > 100 µM
TGI (MDA-MB-231 breast): > 100 µM
TGI (K-562 leukemia): > 100 µM
TGI (M14 melanoma): > 100 µM
TGI (LOX IMVI melanoma): > 100 µM
TGI (DU-145 prostate): > 100 µM
TGI (HL-60(TB) leukemia): > 100 µM
TGI (HOP-62 NSCLC): > 100 µM
TGI (COLO 205 colon): > 100 µM
TGI (RPMI-8226 leukemia): > 100 µM
TGI (BT-549 breast): > 100 µM
TGI (SN12C renal): > 100 µM
TGI (MOLT-4 leukemia): > 100 µM
TGI (ACHN renal): > 100 µM
TGI (OVCAR-5 ovarian): > 100 µM
TGI (UO-31 renal): > 100 µM
TGI (NCI-H226 lung): > 100 µM
TGI (HT29 colon): > 100 µM
TGI (SR leukemia): > 100 µM
TGI (NCI-H522 lung): > 100 µM
TGI (NCI-H23 lung): > 100 µM
TGI (SF-295 CNS): > 100 µM
TGI (SK-MEL-5 melanoma): > 100 µM
TGI (UACC-62 melanoma): > 100 µM
TGI (OVCAR-3 ovarian): > 100 µM
TGI (TK-10 renal): > 100 µM
TGI (SK-MEL-2 melanoma): > 100 µM
TGI (SK-MEL-28 melanoma): > 100 µM
TGI (HCT-15 colon): > 100 µM
TGI (IGROV1 ovarian): > 100 µM
TGI (786-0 renal): > 100 µM
TGI (UACC-257 melanoma): > 100 µM
TGI (HCC-2998 colon): > 100 µM
TGI (U251 CNS): > 100 µM
TGI (SW-620 colon): > 100 µM
TGI (T-47D breast): > 100 µM
TGI (NCI/ADR-RES ovarian): > 100 µM
TGI (A549 NSCLC): > 100 µM
TGI (SK-OV-3 ovarian): > 100 µM
TGI (EKVX NSCLC): > 100 µM
TGI (MCF7 breast): > 100 µM
TGI (OVCAR-8 ovarian): > 100 µM
TGI (MDA-MB-435): > 100 µM
TGI (OVCAR-4 ovarian): > 100 µM
TGI (SF-539 CNS): > 100 µM
TGI (A498 renal): > 100 µM
TGI (NCI-H460 lung): > 100 µM
TGI (CAKI-1 renal): > 100 µM
TGI (CCRF-CEM leukemia): > 100 µM
TGI (SF-268 CNS): > 100 µM
TGI (KM12 colon): > 100 µM
TGI (SNB-75 CNS): > 100 µM
TGI (HCT-116 colon): > 100 µM

CC(=O)c1c(O)ccc2c1c1c(n2C)C(=O)c2ccccc2C1=O
TGI (RXF 393 renal): > 100 µM
TGI (MDA-MB-231 breast): > 100 µM
TGI (K-562 leukemia): > 100 µM
TGI (LOX IMVI melanoma): > 100 µM
TGI (DU-145 prostate): > 100 µM
TGI (HL-60(TB) leukemia): > 100 µM
TGI (HOP-62 NSCLC): > 100 µM
TGI (COLO 205 colon): > 100 µM
TGI (BT-549 breast): > 100 µM
TGI (MOLT-4 leukemia): > 100 µM
TGI (OVCAR-5 ovarian): > 100 µM
TGI (HT29 colon): > 100 µM
TGI (SF-295 CNS): > 100 µM
TGI (SK-MEL-5 melanoma): > 100 µM
TGI (OVCAR-3 ovarian): 6.47 µM
TGI (TK-10 renal): > 28.1 µM
TGI (SK-MEL-2 melanoma): > 100 µM
TGI (HCT-15 colon): > 100 µM
TGI (786-0 renal): > 100 µM
TGI (UACC-257 melanoma): > 100 µM
TGI (HCC-2998 colon): 1.36 µM
TGI (U251 CNS): > 100 µM
TGI (T-47D breast): 4.46 µM
TGI (A549 NSCLC): > 100 µM
TGI (SK-OV-3 ovarian): > 100 µM
TGI (EKVX NSCLC): > 48.5 µM
TGI (MCF7 breast): > 21 µM
TGI (OVCAR-8 ovarian): > 100 µM
TGI (SF-539 CNS): > 100 µM
TGI (A498 renal): > 100 µM
TGI (NCI-H460 lung): > 100 µM
TGI (CAKI-1 renal): > 100 µM
TGI (HS 578T breast): > 100 µM
TGI (CCRF-CEM leukemia): > 44.7 µM
TGI (SNB-19 CNS): > 100 µM
TGI (SF-268 CNS): 7.97 µM
TGI (SNB-75 CNS): 5.97 µM
TGI (HCT-116 colon): > 100 µM

C(=C\c1ccc(-c2cn3cc(/C=C/C=N/NC4=NCCN4)ccc3n2)cc1)/C=N/NC1=NCCN1
TGI (RXF 393 renal): 4.79 µM
TGI (PC-3 prostate): 3.97 µM
TGI (DU-145 prostate): 5.44 µM
TGI (MOLT-4 leukemia): 5.22 µM
TGI (ACHN renal): 3.01 µM
TGI (UO-31 renal): 19.8 µM
TGI (NCI-H226 lung): 3.27 µM
TGI (SR leukemia): 3.54 µM
TGI (HOP-92 NSCLC): 2.51 µM
TGI (TK-10 renal): 65.4 µM
TGI (SK-MEL-2 melanoma): 4.51 µM
TGI (HCT-15 colon): > 100 µM
TGI (HCC-2998 colon): 2.6 µM
TGI (U251 CNS): 2.26 µM
TGI (SW-620 colon): 0.77 µM
TGI (NCI/ADR-RES ovarian): > 44.9 µM
TGI (A549 NSCLC): 1.98 µM
TGI (OVCAR-8 ovarian): 2.67 µM
TGI (MDA-MB-435): 3.54 µM
TGI (NCI-H460 lung): 1.92 µM
TGI (CAKI-1 renal): 5.61 µM
TGI (CCRF-CEM leukemia): 4.18 µM
TGI (KM12 colon): 4.89 µM
